In patent US5316919A, “Method of producing 2 KD to 10 KD peptides having no L-methionine residue” (priority 1992, dated 1994):
Where no end group is shown, it is not given here.

Test system: male ICR mice
Assay: Effects on the blood pressure (caudal vein blood pressure, noninvasive sphygmomanometer) after intravenous injection
Type: in vivo
Conditions: 40 μg/kg by injection into the caudal vein, male ICR mice of 5 weeks of age
Protocol: Two of the compounds of the invention were each administered to male ICR mice of 5 weeks of age by injection into the caudal vein at a dose of 40 μg/kg. […]
In addition, the activity was of long duration. The peptides of the invention have therapeutic utility.

Substance: H-HSDAVFTDNYTRLRKQLAVKKYLNSILNGP-OH [Peptide of Reference Example 3, H-His-Ser-Asp-Ala-Val-Phe-Thr-Asp-Asn-Tyr-Thr-Arg-Leu-Arg-Lys-Gln-Leu-Ala- Val-Lys-Lys-Tyr-Leu-Asn-Ser-Ile-Leu-Asn-Gly-Pro-OH]
- caudal vein blood pressure relative to physiological saline taken as 100% (5 min after administration): 58.9%
- caudal vein blood pressure relative to physiological saline taken as 100% (10 min after administration): 74.1%
- caudal vein blood pressure relative to physiological saline taken as 100% (15 min after administration): 94.3%
- caudal vein blood pressure relative to physiological saline taken as 100% (20 min after administration): 105.5%

Substance: H-HSDAVFTDNYTRLRKQLAVKKYLNSILNGPEA-OH [Peptide of Reference Example 1, H-His-Ser-Asp-Ala-Val-Phe-Thr-Asp-Asn-Tyr-Thr-Arg-Leu-Arg-Lys-Gln-Leu-Ala- Val-Lys-Lys-Tyr-Leu-Asn-Ser-Ile-Leu-Asn-Gly-Pro-Glu-Ala-OH]
- caudal vein blood pressure relative to physiological saline taken as 100% (5 min after administration): 71.1%
- caudal vein blood pressure relative to physiological saline taken as 100% (10 min after administration): 66.4%
- caudal vein blood pressure relative to physiological saline taken as 100% (15 min after administration): 74.9%
- caudal vein blood pressure relative to physiological saline taken as 100% (20 min after administration): 77.9%

Substance: vasoactive intestinal polypeptide (HSDAVFTDNYTRLRKQMAVKKYLNSILN; ends and bridges not checked; UniProt P01282 125-152, looked up) [Naturally occurring VIP, reference compound]
- caudal vein blood pressure relative to physiological saline taken as 100% (5 min after administration): 83.3%
- caudal vein blood pressure relative to physiological saline taken as 100% (10 min after administration): 97.2%
- caudal vein blood pressure relative to physiological saline taken as 100% (15 min after administration): 95.9%
- caudal vein blood pressure relative to physiological saline taken as 100% (20 min after administration): 102.8%
